The text below walks through data of ChEMBL document CHEMBL4613212, “Insights of synthetic analogues of anti-leprosy agents” (Bioorg Med Chem, 2019).

In brackets after ≈: the same amount, converted by molar mass. Where only a bound is given, the exact number is not on record here.

Broadly, the MIC is the least concentration at which growth counts as inhibited. As usually defined, the inhibition is the change of the read-out against control, counted positive when it falls. As usually defined, the half-life is the time needed for the level to fall by half in the phase considered.

The subject of series [1] is Mycolicibacterium smegmatis. Description: Antimicrobial activity against Mycobacterium smegmatis incubated for 30 to 32 hrs under shaking condition. In kind it is functional.
For series [2], the system named is Mycolicibacterium smegmatis. Description: Antimicrobial activity against Mycobacterium smegmatis incubated for 30 to 32 hrs under shaking condition relative to control. In kind it is functional.
For series [3], the system named is Mycobacterium leprae. As to the kind of experiment: Inhibition of PGL1 synthesis in Mycobacterium leprae infected Swiss Webster mouse macrophages assessed as decrease in [U-14C]PA incorporation at 20 uM preincubated for 4 days post infection followed by [U-14C]PA addition and measured after 7 days by liquid scintillation counter analysis relative to control. In kind it is functional.

The subject of series [4] is Mycobacterium tuberculosis. As to the kind of experiment: Antimycobacterial activity against Mycobacterium tuberculosis H37Rv by BACTEC radiometric growth assay. In kind it is functional.
Series [5] relates to Mycobacterium leprae. Description: Inhibition of PGL1 synthesis in Mycobacterium leprae infected Swiss Webster mouse macrophages assessed as decrease in [U-14C]PA incorporation at 2 uM preincubated for 4 days post infection followed by [U-14C]PA addition and measured after 7 days by liquid scintillation counter analysis relative to control. In kind it is functional.
Series [6] relates to Mycobacterium leprae. Description: Inhibition of PGL1 synthesis in Mycobacterium leprae infected Swiss Webster mouse macrophages assessed as decrease in [U-14C]PA incorporation at 0.2 uM preincubated for 4 days post infection followed by [U-14C]PA addition and measured after 7 days by liquid scintillation counter analysis relative to control. In kind it is functional.
For series [7], the system named is Mycobacterium leprae. Description: Anti-leprotic activity against Mycobacterium leprae infected in albino mouse assessed survival against infection at 400 mg/kg, sc administered 58 days post-infection and subsequent compound dosing at 200 mg/kg at 0.5, 1 or 2 months interval. In kind it is functional.
Series [8] can be described thus: Half life in rat at 400 mg/kg, sc administered as single dose. In kind it is ADME, organism-based. The following applies: in vivo.
A further series has as its system Plasmodium berghei. As to the kind of experiment: Antimalarial activity against Plasmodium berghei infected in albino mouse assessed survival against infection at 400 mg/kg, sc administered as single dose. In kind it is functional.
Series [9] in a line: Drug concentration in rat blood at 400 mg/kg, sc administered as single dose. In kind it is ADME, organism-based. The settings on record: in vivo.
The next series has as its system Rattus norvegicus. Description: Effect of metallo-protein haemoglobin in rat assessed as peak methemoglobin level at 400 mg/kg, sc administered as single dose. In kind it is ADME, organism-based. The settings on record: in vivo.
The nature of series [10]: Drug excretion in rat urine at 400 mg/kg, sc administered as single dose measured after 30 days. In kind it is ADME, organism-based. The settings on record: read-out: Drug excretion.
Series [11] relates to Mycobacterium leprae. Description: Anti-leprotic activity against Mycobacterium leprae infected in CBA mouse assessed as number of Mycobacterium leprae in paw pads at 10 mg/kg administrated 5 times a week and measured 7.5 months post infection (reference value: 3.91 +/- 0.33 10^5). In kind it is functional.
Series [12] concerns Mycobacterium leprae. Description: Anti-leprotic activity against Mycobacterium leprae infected in CBA mouse assessed as number of Mycobacterium leprae in paw pads at 30 mg/kg administrated 5 times a week and measured 7.5 months post infection (reference value: 3.91 +/- 0.33 10^5). In kind it is functional.
The test system of series [13] is Monocyte. As to the kind of experiment: Antiinflammatory activity in human monocytes assessed as inhibition of LPS-induced TNFaplha production at 25 uM preincubated for 15 mins followed by LPS addition and measured after 4 hrs by ELISA relative to control. In kind it is functional. Background: In an ELISA, binding on a coated surface is turned into a signal by an enzyme label.

For series [14], the system named is Monocyte. Description: Antiinflammatory activity in human monocytes assessed as inhibition of LPS-induced TNFaplha production at 50 uM preincubated for 15 mins followed by LPS addition and measured after 4 hrs by ELISA relative to control. In kind it is functional.
Series [15] in a line: Cytotoxicity against LPS-induced human monocytes assessed as cell viability at 50 uM by tryphan blue staining based assay relative to control. Set-up: species or system Monocyte. The following applies: read-out: Activity.
The subject of another series is Staphylococcus aureus. Description: Antimicrobial activity against Staphylococcus aureus assessed as zone of inhibition incubated for 20 hrs by agar well diffusion assay. In kind it is functional. For orientation: Agar diffusion results depend on both activity and mobility in agar.
The next series relates to Escherichia coli. As to the kind of experiment: Antimicrobial activity against Escherichia coli assessed as zone of inhibition incubated for 20 hrs by agar well diffusion assay. In kind it is functional.
Series [16] concerns Mycolicibacterium smegmatis. Description: Antimycobacterial activity against DDS resistant Mycobacterium smegmatis ATCC 607 […]. In kind it is functional.
The subject of series [17] is Mycobacterium leprae. As to the kind of experiment: Anti-leprotic activity against Mycobacterium leprae infected in BALB/c mouse assessed as time delay in bacterial multiplication in footpad at 0.01 g/100g of diet administered via feed starting 60 or 75 day post infection up to 90 days by Shepard's kinetic method. In kind it is functional.
The test system of series [18] is Mycolicibacterium smegmatis. Description: Antimycobacterial activity against DDS sensitive Mycobacterium smegmatis ATCC 607 […]. In kind it is functional.
For another series, the system named is Mycolicibacterium vaccae. As to the kind of experiment: Antimicrobial activity against Mycobacterium vaccae incubated for 24 hrs by broth microdilution assay. In kind it is functional.
Series [19] relates to Mycolicibacterium fortuitum. As to the kind of experiment: Antimicrobial activity against Mycobacterium fortuitum incubated for 24 hrs by broth microdilution assay. In kind it is functional.
The test system of series [20] is Mycolicibacterium smegmatis. Description: Antimicrobial activity against Mycobacterium smegmatis incubated for 24 hrs by broth microdilution assay. In kind it is functional. (In general: Dilution methods test growth across graded concentrations, often in twofold steps.)
Series [21] has as its system Mycobacterium leprae. As to the kind of experiment: Anti-leprotic activity against Mycobacterium leprae infected in 538 CBA mouse assessed as number of Mycobacterium leprae in paw pads at 2 mg/kg administrated via gastric tube 5 times a week and measured 7 months post infection. In kind it is functional.
Series [22] concerns Mycobacterium leprae. Description: Anti-leprotic activity against Mycobacterium leprae infected in 538 CBA mouse assessed as number of Mycobacterium leprae in paw pads at 6 mg/kg administrated via gastric tube 5 times a week and measured 7 months post infection. In kind it is functional.
A further series relates to Mycolicibacterium aurum. Description: Antimicrobial activity against Mycobacterium aurum incubated for 24 hrs by broth microdilution assay. In kind it is functional.
Series [23] is described as follows: Selectivity index, ratio of IC50 for African green monkey Vero cells to MIC for antitubercular activity against Mycobacterium tuberculosis H37Rv. The settings on record: Vero cells, read-out: Selectivity Index. In kind it is toxicity.
Series [24] concerns Mycobacterium tuberculosis. As to the kind of experiment: Antitubercular activity against Mycobacterium tuberculosis H37Rv ATCC 27294 assessed as growth inhibition at 6.25 ug/ml by microplate alamar blue assay relative to control. In kind it is functional.

`CCn1cc(C(=O)N/N=C\c2ccc(C)cc2)c(=O)c2cc(F)c(N3CCN(C)CC3)cc21` gave an MIC in series [1] of 42.5 µM (≈ 19.1 µg/mL). The Activity in series [2] is listed as more than 30%.

With `NNC(=O)c1ccncc1` [ISONIAZID], the inhibition at 20 µM with Mycobacterium leprae [3] is 29%. The MIC in [4] is 0.1 to 0.4 mg/L (≈ 0.729 to 2.92 µM).

As for `CCN(CC)CCC/N=c1/cc2n(-c3ccc(Cl)cc3)c3ccccc3nc-2cc1Nc1ccc(Cl)cc1`, the inhibition at 2 µM with Mycobacterium leprae [5] came to 90%. Moreover, the inhibition at 0.2 µM with Mycobacterium leprae [6] stood at 22%.

For `CC(=O)Nc1ccc(S(=O)(=O)c2ccc(/N=C/c3ccc(/C=N/c4ccc(S(=O)(=O)c5ccc(NC(C)=O)cc5)cc4)cc3)cc2)cc1`, the Survival was more than 8 weeks with Mycobacterium leprae [7] and 5 - 7 weeks with Plasmodium berghei. In series [8], this compound had a half-life of 55 days. For the same compound, the Drug uptake in [9] came out at 0.4 µg/mL. The Activity in the series with Rattus norvegicus came out at 0.2 g/dL. Also, the dose excreted at 720 h in series [10] is 40%.

`CN(C)C(=S)Sc1c(C#N)cc([N+](=O)[O-])cc1[N+](=O)[O-]`: the values for the Activity with Mycobacterium leprae [11] and in the series on Mycobacterium leprae [12] were 0.83 ×10⁵ No_unit and 0.77 ×10⁵ No_unit, respectively.

With `CCn1cc(C(=O)N/N=C\c2cccc(O)c2)c(=O)c2cc(F)c(N3CCN(C)CC3)cc21`, the MIC in [1] was 27.2 µM (≈ 12.3 µg/mL). The compound also registered an Activity in series [2] of more than 30%.

For the compound `O=C1CCC(N2C(=O)c3ccccc3C2=O)C(=O)N1` (stereo unspecified) [THALIDOMIDE], the inhibition at 25 µM in the series on Monocyte [13] is less than 10%. For the same compound, in the series with Monocyte [14], the inhibition at 50 µM worked out at 15%. Besides, the viability at 50 µM in series [15] turned out to be 98%.

`CCn1cc(C(=O)N/N=C\c2cc(OC)c(OC)c(OC)c2)c(=O)c2cc(F)c(N3CCN(C)CC3)cc21` showed a minimum inhibitory concentration (MIC) in [1] of 81.2 µM (≈ 42.7 µg/mL). Besides, the Activity in series [2] is more than 30%.

In the case of `C[C@@H](O)[C@H]1C(=O)N2C(C(=O)O)=C(SCCNC=O)C[C@H]12`, the entries for the “diameter of the inhibition zone (DIZ)” value in the series with Staphylococcus aureus and in the series with Escherichia coli were 29 mm and 30 mm, respectively.

With `C[C@@H](O)[C@H]1C(=N)N2C(C(=O)O)=C(SCCNC=N)C[C@H]12`, the “diameter of the inhibition zone (DIZ)” value worked out at 25 mm in the series on Staphylococcus aureus and 27 mm in the series with Escherichia coli.

For the compound `CC(=O)Nc1ccc(S(=O)(=O)c2ccc(N)cc2)cc1` [MONO-N-ACETYL DAPSONE], the half-life in [8] is 32 days. In the series with Plasmodium berghei, this compound yielded a Survival of 3.5 weeks. In addition, the Drug uptake in [9] is 1.3 µg/mL. Moreover, the results for the MIC in [16] and in series [18] were more than 300 mg/L and 13.8 mg/L (≈ 47.5 µM), respectively. Besides, in the series with Mycobacterium leprae [17], the Time turned out to be 60 days. In the series with Rattus norvegicus, the Activity stood at 1.2 g/dL. Also, the dose excreted at 720 h in series [10] was 50%.

For `N#Cc1cc([N+](=O)[O-])cnc1SC(=S)N1CCCC1`, the MIC came out at 1.56 mg/L (≈ 5.3 µM) in the series with Mycolicibacterium vaccae, 1.56 mg/L (≈ 5.3 µM) in series [19], 3.12 mg/L (≈ 10.6 µM) in [20] and 1.56 mg/L (≈ 5.3 µM) in the series on Mycolicibacterium aurum. Also, the Activity was found to be 0.56 ×10⁷ No_unit with Mycobacterium leprae [21] and 0.28 ×10⁷ No_unit with Mycobacterium leprae [22].

For `Clc1nc(-c2cccs2)c2ncn(Cc3ccccc3)c2n1`, in series [23], the selectivity ratio was more than 6.4. For the same compound, the inhibition at 6.25 µg/mL in [24] was more than 90%.

For `C[C@@H](O)[C@H]1C(=O)N2C(C(=O)O)=C(SCCNC=N)O[C@H]12`, the “diameter of the inhibition zone (DIZ)” value amounted to 28 mm with Staphylococcus aureus and 31 mm in the series on Escherichia coli.

As to `COc1ccc(S(=O)(=O)c2ccc(N)cc2)cc1`, the MIC is more than 500 mg/L in series [16] and 256 mg/L (≈ 972 µM) in [18]. Moreover, in the series with Mycobacterium leprae [17], the Time was less than 10 days.
